Values quoted from earlier work, collected in patent US9763892B2, “Immediate release phospholipid-coated therapeutic agent nanoparticles and related methods” (Autotelic LLC, priority 2015, dated 2017).

Conditions: phospholipid used for PTX-NPs

| SMILES | Transition Temp. |
| --- | --- |
| CCCCCCCCCCCC(=O)OC[C@H](COP(=O)([O-])OCC[N+](C)(C)C)OC(=O)CCCCCCCCCCC [PC-12, 1,2-dilauroyl-sn-glycero-3-phosphocholine] | −2 °C |
| CCCCCCCCCCCCCC(=O)OC[C@H](COP(=O)([O-])OCC[N+](C)(C)C)OC(=O)CCCCCCCCCCCCC [PC-14, 1,2-dimyristoyl-sn-glycero-3-phosphocholine] | 24 °C |

The next lines start with the values.

| Transition Temp. | SMILES |
| --- | --- |
| 66 °C | CCCCCCCCCCCCCCCCCCCC(=O)OC[C@H](COP(=O)([O-])OCC[N+](C)(C)C)OC(=O)CCCCCCCCCCCCCCCCCCC [PC-20, 1,2-diarachidoyl-sn-glycero-3-phosphocholine] |
| −17 °C | CCCCCCCC/C=C\CCCCCCCC(=O)OC[C@H](COP(=O)([O-])OCC[N+](C)(C)C)OC(=O)CCCCCCC/C=C\CCCCCCCC [PC-18 (unsaturated), 1,2-dioleoyl-sn-glycero-3-phosphocholine] |
| 41 °C | CCCCCCCCCCCCCCCC(=O)OC[C@H](COP(=O)([O-])OCC[N+](C)(C)C)OC(=O)CCCCCCCCCCCCCCC [PC 16, 1,2-dipalmitoyl-sn-glycero-3-phosphocholine] |
